Experimental data: patent publication US20260285875A1, “INHIBITORS OF PARG” (858 Therapeutics, Inc., priority 2023, published 2026)

Biological target: T1, cellular PARG (Homo sapiens, UniProt Q86W56)
T1 construct: endogenous in cells; host or cells: HeLa
Assay: Nuclear PAR accumulation assay (immunofluorescence high-content imaging, MMS-treated HeLa cells)
Type: cell-based
Details: 1 hour compound then MMS 50 μg/mL for an additional hour
Method: HeLa cells were plated at 15,000 cells/well in a 96-well plate the day before compound treatment and then treated with varying concentrations of test compound and incubated for 1 hour at 37° C.+5% CO2. Following test compound treatment, methylmethane sulfonate (MMS) was added to a final concentration of 50 μg/mL and the cells were incubated for an additional hour. Following treatment, the cells were fixed with ice cold 95% methanol and the plates sealed and placed at -20° C. for 15 minutes. The cells were then washed once with phosphate buffered saline (PBS) and permeabilized with 0.10% Triton-X 100 for 20 minutes at room temperature. […] The cells were then washed three times with PBS before incubation with a fluorescently conjugated goat anti-mouse antibody (Invitrogen A32723) diluted 1:500 in 5% FBS+0.1% Tween-20+PBS for 1 hour at room temperature. The cells were again washed three times with PBS and the nuclei labeled by incubating with 1 μg/mL DAPI (4′,6-diamidino-2-phenylindole). Nuclear PAR accumulation was evaluated using high-content fluorescence microscopy. Four fields for each well were acquired at 20× magnification resulting in at least 1,000 cells analyzed per well. […] Both the average intensity per nucleus and percent PAR positive cells were quantified. […] Concentration-response-curves and IC50 values were generated using four parameter logistic curve fit software.
Representative data for exemplary compounds is presented in Table 32, Table 33 and Table 34.

T1 sequence (Q86W56 whole entry): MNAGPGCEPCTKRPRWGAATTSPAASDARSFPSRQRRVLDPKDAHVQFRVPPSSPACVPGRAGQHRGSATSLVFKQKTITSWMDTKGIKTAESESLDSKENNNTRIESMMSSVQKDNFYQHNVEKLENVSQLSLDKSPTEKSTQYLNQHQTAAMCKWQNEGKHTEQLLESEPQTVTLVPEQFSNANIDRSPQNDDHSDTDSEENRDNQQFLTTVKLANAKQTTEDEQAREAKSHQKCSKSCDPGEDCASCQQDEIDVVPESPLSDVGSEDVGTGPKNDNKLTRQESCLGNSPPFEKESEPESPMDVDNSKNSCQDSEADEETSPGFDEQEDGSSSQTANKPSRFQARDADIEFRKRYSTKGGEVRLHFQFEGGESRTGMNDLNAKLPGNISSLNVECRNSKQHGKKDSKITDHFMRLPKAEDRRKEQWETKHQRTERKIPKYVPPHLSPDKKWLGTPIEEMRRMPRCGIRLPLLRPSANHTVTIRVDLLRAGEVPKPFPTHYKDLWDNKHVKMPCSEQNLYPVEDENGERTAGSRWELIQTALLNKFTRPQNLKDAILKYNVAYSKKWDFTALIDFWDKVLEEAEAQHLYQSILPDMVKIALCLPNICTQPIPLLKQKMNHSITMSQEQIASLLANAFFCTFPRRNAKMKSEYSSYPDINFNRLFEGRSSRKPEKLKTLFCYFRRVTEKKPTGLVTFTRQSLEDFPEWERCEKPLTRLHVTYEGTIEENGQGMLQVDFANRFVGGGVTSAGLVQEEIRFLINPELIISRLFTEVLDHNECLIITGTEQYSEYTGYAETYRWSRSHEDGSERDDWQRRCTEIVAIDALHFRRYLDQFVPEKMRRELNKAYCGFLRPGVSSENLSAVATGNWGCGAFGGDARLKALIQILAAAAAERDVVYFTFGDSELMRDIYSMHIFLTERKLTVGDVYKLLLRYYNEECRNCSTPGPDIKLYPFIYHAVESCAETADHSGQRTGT

Row | IC50 [nM] | Structure (SMILES)
1 | < 100 | CN(C)CC#C[C@@H]1CN=C2N(Cc3cnn(C)c3)C(=O)c3cc(S(=O)(=O)NC4(C)CC4)ccc3N21 [Example 31, (R)-1-(3-(dimethylamino)prop-1-yn-1-yl)-4-((1-methyl-1H-pyrazol-4-yl)methyl)-N-(1-methylcyclopropyl)-5-oxo-1,2,4,5-tetrahydroimidazo[1,2-a]quinazoline-7-sulfonamide]
2 | < 100 | Cc1cc(F)ccc1-c1cc(S(=O)(=O)NC2(C)CC2)cc2c1N1C(=NC[C@H]1C)N(Cc1cnn(C)c1)C2=O [Example 32, (R)-9-(4-fluoro-2-methylphenyl)-1-methyl-4-((1-methyl-1H-pyrazol-4-yl)methyl)-N-(1-methylcyclopropyl)-5-oxo-1,2,4,5-tetrahydroimidazo[1,2-a]quinazoline-7-sulfonamide]
3 | < 100 | C[C@@H]1CN=C2N(C)C(=O)c3cc(S(=O)(=O)NC4(C)CC4)cc(N4CCN(C(=O)N(C)C)CC4)c3N21 [Example 33, (R)-4-(1,4-dimethyl-7-(N-(1-methylcyclopropyl)sulfamoyl)-5-oxo-1,2,4,5-tetrahydroimidazo[1,2-a]quinazolin-9-yl)-N,N-dimethylpiperazine-1-carboxamide]
4 | < 100 | Cn1cc(C#C[C@@H]2CN=C3N(Cc4cnn(C)c4)C(=O)c4cc(S(=O)(=O)NC5(C)CC5)ccc4N32)cn1 [Example 35, (R)-1-((1-methyl-1H-pyrazol-4-yl)ethynyl)-4-((1-methyl-1H-pyrazol-4-yl)methyl)-N-(1-methylcyclopropyl)-5-oxo-1,2,4,5-tetrahydroimidazo[1,2-a]quinazoline-7-sulfonamide]
5 | < 100 | C#C[C@@H]1CN=C2N(C)C(=O)c3cc(S(=O)(=O)NC4(C)CC4)cc(Br)c3N21 [Example 38, (R)-9-bromo-1-ethynyl-4-methyl-N-(1-methylcyclopropyl)-5-oxo-1,2,4,5-tetrahydroimidazo[1,2-a]quinazoline-7-sulfonamide]
6 | < 100 | Cn1cc(CN2C(=O)c3cc(S(=O)(=O)NC4(C)CC4)ccc3N3C2=NC[C@H]3CC(F)(F)F)cn1 [Example 39, (R)-4-((1-methyl-1H-pyrazol-4-yl)methyl)-N-(1-methylcyclopropyl)-5-oxo-1-(2,2,2-trifluoroethyl)-1,2,4,5-tetrahydroimidazo[1,2-a]quinazoline-7-sulfonamide]
7 | < 100 | CC#C[C@@H]1CN=C2N(C)C(=O)c3cc(S(=O)(=O)NC4(C)CC4)cc(Br)c3N21 [Example 42, (R)-9-bromo-4-methyl-N-(1-methylcyclopropyl)-5-oxo-1-(prop-1-yn-1-yl)-1,2,4,5-tetrahydroimidazo[1,2-a]quinazoline-7-sulfonamide]
8 | < 100 | [2H]C([2H])(c1cnn(C)c1)N1C(=O)c2cc(S(=O)(=O)NC3(C)CC3)ccc2N2C1=NC[C@H]2C#C [Example 43, (R)-1-ethynyl-4-((1-methyl-1H-pyrazol-4-yl)methyl-d2)-N-(1-methylcyclopropyl)-5-oxo-1,2,4,5-tetrahydroimidazo[1,2-a]quinazoline-7-sulfonamide]
9 | < 100 | Cn1cc(CN2C(=O)c3cc(S(=O)(=O)NC4(C)CC4)ccc3N3C2=NC[C@H]3C2CCC(F)(F)CC2)cn1 [Example 45, (R)-1-(4,4-difluorocyclohexyl)-4-((1-methyl-1H-pyrazol-4-yl)methyl)-N-(1-methylcyclopropyl)-5-oxo-1,2,4,5-tetrahydroimidazo[1,2-a]quinazoline-7-sulfonamide]

More lines, now with the values behind:

Row | Structure (SMILES) | IC50 [nM]
10 | C[C@@H]1CN=C2N(Cc3cn(C)nc3C(F)(F)F)C(=O)c3cc(S(=O)(=O)NC4(C)CC4)cc(Br)c3N21 [Example 23, (R)-9-bromo-1-methyl-4-((1-methyl-3-(trifluoromethyl)-1H-pyrazol-4-yl)methyl)-N-(1-methylcyclopropyl)-5-oxo-1,2,4,5-tetrahydroimidazo[1,2-a]quinazoline-7-sulfonamide] | < 100
11 | C[C@@H]1CN=C2N(Cc3cn(C)nc3C(F)F)C(=O)c3cc(S(=O)(=O)NC4(C)CC4)ccc3N21 [Example 24, (R)-4-((3-(difluoromethyl)-1-methyl-1H-pyrazol-4-yl)methyl)-1-methyl-N-(1-methylcyclopropyl)-5-oxo-1,2,4,5-tetrahydroimidazo[1,2-a]quinazoline-7-sulfonamide] | < 100
12 | Cc1cc(F)ccc1-c1cc(S(=O)(=O)NC2(C)CC2)cc2c1N1CC(C)(C)N=C1N(Cc1cnn(C)c1)C2=O [Example 25, 9-(4-fluoro-2-methylphenyl)-2,2-dimethyl-4-((1-methyl-1H-pyrazol-4-yl)methyl)-N-(1-methylcyclopropyl)-5-oxo-1,2,4,5-tetrahydroimidazo[1,2-a]quinazoline-7-sulfonamide] | < 100
13 | Cn1cc(CN2C(=O)c3cc(S(=O)(=O)NC4(C)CC4)cc(C4=CCCC4)c3N3CCN=C23)cn1 [Example 26, 9-(cyclopent-1-en-1-yl)-4-((1-methyl-1H-pyrazol-4-yl)methyl)-N-(1-methylcyclopropyl)-5-oxo-1,2,4,5-tetrahydroimidazo[1,2-a]quinazoline-7-sulfonamide] | 100 to 1000
14 | C[C@@H]1CN=C2N(Cc3cnn(C)c3)C(=O)c3cc(S(=O)(=O)NC4(C)CC4)cc(N4CCC(O)CC4)c3N21 [Example 27, (R)-9-(4-hydroxypiperidin-1-yl)-1-methyl-4-((1-methyl-1H-pyrazol-4-yl)methyl)-N-(1-methylcyclopropyl)-5-oxo-1,2,4,5-tetrahydroimidazo[1,2-a]quinazoline-7-sulfonamide] | 100 to 1000
15 | Cn1cc(CN2C(=O)c3cc(S(=O)(=O)NC4(C)CC4)ccc3N3C2=NC[C@H]3COc2ccccc2)cn1 [Example 28, (S)-4-((1-methyl-1H-pyrazol-4-yl)methyl)-N-(1-methylcyclopropyl)-5-oxo-1-(phenoxymethyl)-1,2,4,5-tetrahydroimidazo[1,2-a]quinazoline-7-sulfonamide] | < 100
16 | Cn1cc(CN2C(=O)c3cc(S(=O)(=O)NC4(C)CC4)ccc3N3C2=NC[C@H]3COc2ccc(F)cc2)cn1 [Example 29, (S)-1-((4-fluorophenoxy)methyl)-4-((1-methyl-1H-pyrazol-4-yl)methyl)-N-(1-methylcyclopropyl)-5-oxo-1,2,4,5-tetrahydroimidazo[1,2-a]quinazoline-7-sulfonamide] | < 100
17 | Cn1cc(CN2C(=O)c3cc(S(=O)(=O)NC4(C)CC4)ccc3N3C2=NC[C@H]3COc2cccc(F)c2)cn1 [Example 30, (S)-1-((3-fluorophenoxy)methyl)-4-((1-methyl-1H-pyrazol-4-yl)methyl)-N-(1-methylcyclopropyl)-5-oxo-1,2,4,5-tetrahydroimidazo[1,2-a]quinazoline-7-sulfonamide] | < 100
18 | CN1C(=O)c2cc(S(=O)(=O)NC3(C)CC3)cc(Br)c2N2C1=NC[C@H]2C#CC1CC1 [Example 34, (R)-9-bromo-1-(cyclopropylethynyl)-4-methyl-N-(1-methylcyclopropyl)-5-oxo-1,2,4,5-tetrahydroimidazo[1,2-a]quinazoline-7-sulfonamide] | < 100
19 | Cn1cc(CN2C(=O)c3cc(S(=O)(=O)NC4(C)CC4)ccc3N3C2=NC[C@H]3C#Cc2ccccc2)cn1 [Example 36, (R)-4-((1-methyl-1H-pyrazol-4-yl)methyl)-N-(1-methylcyclopropyl)-5-oxo-1-(phenylethynyl)-1,2,4,5-tetrahydroimidazo[1,2-a]quinazoline-7-sulfonamide] | < 100
20 | C[C@@H]1CN=C2N(Cc3cnn(C)c3)C(=O)c3cc(S(=O)(=O)NC4(C)CC4)cc(N4CCC(C(=O)N(C)C)CC4)c3N21 [Example 37, (R)-N,N-dimethyl-1-(1-methyl-4-((1-methyl-1H-pyrazol-4-yl)methyl)-7-(N-(1-methylcyclopropyl)sulfamoyl)-5-oxo-1,2,4,5-tetrahydroimidazo[1,2-a]quinazolin-9-yl)piperidine-4-carboxamide] | 100 to 1000
21 | Cn1cc(CN2C(=O)c3cc(S(=O)(=O)NC4(C)CC4)ccc3N3C2=NC[C@H]3/C=C/c2ccccc2)cn1 [Example 40, (R,E)-4-((1-methyl-1H-pyrazol-4-yl)methyl)-N-(1-methylcyclopropyl)-5-oxo-1-styryl-1,2,4,5-tetrahydroimidazo[1,2-a]quinazoline-7-sulfonamide] | < 100
22 | C[C@@H]1CN=C2N(Cc3cnn(C)c3)C(=O)c3cc(S(=O)(=O)NC4(C)CC4)sc3N21 [Example 41, (R)-8-methyl-5-((1-methyl-1H-pyrazol-4-yl)methyl)-N-(1-methylcyclopropyl)-4-oxo-4,5,7,8-tetrahydroimidazo[1,2-a]thieno[3,2-e]pyrimidine-2-sulfonamide] | 100 to 1000
23 | Cn1cc(CN2C(=O)c3cc(S(=O)(=O)NC4(C)CC4)ccc3N3C2=NC[C@H]3C2CCOCC2)cn1 [Example 44, (R)-4-((1-methyl-1H-pyrazol-4-yl)methyl)-N-(1-methylcyclopropyl)-5-oxo-1-(tetrahydro-2H-pyran-4-yl)-1,2,4,5-tetrahydroimidazo[1,2-a]quinazoline-7-sulfonamide] | 100 to 1000
24 | CN(C)C(=O)N1CCN(c2cc(S(=O)(=O)NC3(C)CC3)cc3c2N2CC(C)(C)N=C2N(C)C3=O)CC1 [Example 46, N,N-dimethyl-4-(2,2,4-trimethyl-7-(N-(1-methylcyclopropyl)sulfamoyl)-5-oxo-1,2,4,5-tetrahydroimidazo[1,2-a]quinazolin-9-yl)piperazine-1-carboxamide] | < 100
